Source: EPA's ToxValDB 9.5 (doi:10.2903/j.efsa.2010.1857)
In brackets after ≈: the same amount, converted by molar mass.

Tests used:
Anas platyrhynchos = conditions: acute; oral; unspecified; mortality
Colinus virginianus = conditions: for LC50: diet
Cyprinus carpio = conditions: chronic/long-term; duration: 21 days; growth
Poecilus cupreus = conditions: not reported; morphology
Daphnia magna = conditions: chronic/long-term; duration: 17 days; reproduction
Apis mellifera = conditions: acute; duration: 48 hours; oral; unspecified; mortality
Oncorhynchus mykiss = conditions: acute; duration: 96 hours; mortality
Rattus norvegicus = conditions: for NOAEL: histopathology: nonneoplastic

| SMILES | LD50 (Anas platyrhynchos) | LC50 (Colinus virginianus; acute, oral, mortality) | NOEC (Cyprinus carpio) | LEL (Poecilus cupreus) | NOEC (Daphnia magna) | LD50 (Apis mellifera) | LC50 (Oncorhynchus mykiss) | LC50 (Tagia sp.; acute, duration: 14 days, mortality) | NOEC (Tagia sp.; chronic/long-term, duration: 56 days) | LD50 (Colinus virginianus; acute, oral, mortality) | NOEC (Colinus virginianus; reproduction developmental) | LD50 (Rattus norvegicus; acute, oral, mortality) | NOAEL (Rattus norvegicus; chronic, duration: 2 years, M) | NOEL (Rattus norvegicus; reproduction developmental, reproduction) | NOAEL (Rattus norvegicus; subchronic, duration: 90 days, oral) |
| --- | --- | --- | --- | --- | --- | --- | --- | --- | --- | --- | --- | --- | --- | --- | --- |
| CC1=C(C(=O)Nc2ccccc2)S(=O)(=O)CCO1 [Oxycarboxin] | 1250 mg/kg-day | > 2200 mg/kg-day |  |  |  |  |  |  |  |  |  |  |  |  |  |
| CC1=C(C(=O)Nc2ccccc2)SCCO1 [Carboxin] |  | > 985 mg/kg-day | 0.32 mg/L | 776 mg/kg | 0.32 mg/L | > 100 µg/piece | 2.3 µg/mL (≈ 9.77 µM) | > 500 mg/kg | 100 mg/kg | > 2150 mg/kg-day | 83 mg/kg-day | 2590 mg/kg-day | 0.82 mg/kg-day | 20 mg/kg-day | 5.5 mg/kg-day |
